14 molecules from US8697727B2, “N-substituted-heterocycloalkyloxybenzamide compounds and methods of use” (Rigel Pharmaceuticals, Inc., priority 2006, dated 2014) can be followed below.

pEC50: −log10 of the molar value.

This assay deals with AMPK. Briefly: AMPK activation, enzyme-linked immunosorbent assay. In kind it is cell-based. The method in brief:
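Reported in ranges of less than 1 μM, 1-10 μM, 10-20 μM, 20-50 μM, 50-100 μM, and >100 μM, the values come from a cell-based assay. There, an enzyme-linked immunosorbent assay measured the relative concentration of phosphorylated acetyl-CoA carboxylase as a readout of AMPK activity. The endpoint is the EC50 of each compound for AMPK activation.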

Take `O=C(NC1CCN(Cc2ccccc2)CC1)c1ccc(OC2CCN(Cc3ccco3)CC2)cc1` [Compound 3, N-(1-benzylpiperidin-4-yl)-4-(1-(furan-2-ylmethyl)piperidin-4-yloxy)benzamide]: the pEC50 is 5.00 to 6.00.

As for `Cn1cncc1CN1CCC(Oc2ccc(C(=O)NC3CCN(Cc4ccccc4)CC3)cc2)CC1` [Compound 4, N-(1-benzylpiperidin-4-yl)-4-(1-((l-methyl-1H-imidazol-5-yl)methyl)piperidin-4-yloxy)benzamide], the pEC50 was less than 4.00.

With `Cn1cncc1CN1CCC(Oc2ccc(C(=O)NC3CCN(Cc4ccccc4)CC3)cc2Cl)CC1` [Compound 5, N-(1-benzylpiperidin-4-yl)-3-chloro-4-(1-((l-methyl-1H-imidazol-5-yl)methyl)piperidin-4-yloxy)benzamide], the pEC50 was 4.00 to 4.30.

`O=C(NC1CCN(Cc2ccccc2)CC1)c1ccc(OC2CCN(Cc3ccncc3)CC2)c(Cl)c1` [Compound 6, N-(1-benzylpiperidin-4-yl)-3-chloro-4-(1-(pyridin-4-ylmethyl)piperidin-4-yloxy)benzamide]: the pEC50 was more than 6.00.

As for `COc1cc(C(=O)NC2CCN(Cc3ccccc3)CC2)ccc1OC1CCN(CCCc2ccccc2)CC1` [Compound 7, N-(1-benzylpiperidin-4-yl)-3-methoxy-4-(1-(3-phenylpropyl)piperidin-4-yloxy)benzamide], the pEC50 was more than 6.00.

Regarding `COc1cc(C(=O)NC2CCN(Cc3ccccc3)CC2)ccc1OC1CCN(c2cccs2)CC1` [Compound 8, N-(1-benzylpiperidin-4-yl)-3-methoxy-4-(1-(thiophen-2-yl)piperidin-4-yloxy)benzamide], the pEC50 is 5.00 to 6.00.

On to `COc1cc(C(=O)NC2CCN(Cc3ccccc3)CC2)ccc1OC1CCN(S(C)(=O)=O)CC1` [Compound 9, N-(1-benzylpiperidin-4-yl)-3-methoxy-4-(1-(methylsulfonyl)piperidin-4-yloxy)benzamide], for which the pEC50 was 4.30 to 4.70.

On to `O=C(NC1CCN(Cc2ccccc2)CC1)c1ccc(OC2CCN(c3cccs3)CC2)c(Cl)c1` [Compound 10, N-(1-benzylpiperidin-4-yl)-3-chloro-4-(1-(thiophen-2-yl)piperidin-4-yloxy)benzamide], for which the negative logarithm of the EC50 (pEC50) was 5.00 to 6.00.

In the case of `O=C(NC1CCN(Cc2ccccc2)CC1)c1ccc(OC2CCN(c3ccco3)CC2)c(Cl)c1` [Compound 11, N-(1-benzylpiperidin-4-yl)-3-chloro-4-(1-(furan-2-yl)piperidin-4-yloxy)benzamide], the pEC50 was 5.00 to 6.00.

As for `COc1cc(C(=O)NC2CCN(Cc3ccccc3)CC2)ccc1OC1CCN(c2ccco2)CC1` [Compound 12, N-(1-benzylpiperidin-4-yl)-3-methoxy-4-(1-(furan-2-yl)piperidin-4-yloxy)benzamide], the pEC50 is 5.00 to 6.00.

As to `O=C(NC1CCN(Cc2ccccc2)CC1)c1cccc(OC2CCN(Cc3ccccc3)CC2)c1` [Compound 13, N-(1-benzylpiperidin-4-yl)-3-(1-benzylpiperidin-4-yloxy)benzamide], the negative logarithm of the EC50 (pEC50) is 4.30 to 4.70.

In the case of `O=C(NC1CCN(Cc2ccccc2)CC1)c1ccc(OC2CCN(Cc3ccccc3)CC2)c(Cl)c1` [Compound 14, N-(1-benzylpiperidin-4-yl)-4-(1-benzylpiperidin-4-yloxy)-3-chlorobenzamide], the pEC50 is more than 6.00.

As for `O=C(NC1CCN(Cc2ccccc2)CC1)c1ccc(OC2CCN(Cc3ccc4c(c3)OCCO4)CC2)c(Cl)c1` [Compound 15, N-(1-benzylpiperidin-4-yl)-3-chloro-4-(1-((2,3-dihydrobenzo[b][1,4]dioxin-6-yl)methyl)piperidin-4-yloxy)benzamide], the pEC50 is more than 6.00.

`CC(C)(C)c1ccc(CN2CCC(Oc3ccc(C(=O)NC4CCN(Cc5ccccc5)CC4)cc3Cl)CC2)cc1` [Compound 16, N-(1-benzylpiperidin-4-yl)-4-(1-(4-tert-butylbenzyl)piperidin-4-yloxy)-3-chlorobenzamide] had a pEC50 of more than 6.00.

In general, pEC50 refers to the negative decadic logarithm of the EC50, by convention in mol/L. Read a high pEC50 as a low EC50.
